Source: article PMC7413254 (Nature Communications, 2020)
Read-outs that look alike come from different tables or passages of the source.

Tests used:
Conditions in all cases: trans-stimulation, solute 2 mM
non-expressing oocytes = assay type: cell-based, Xenopus laevis
In short: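 Oocytes (ten per treatment, ≥4 independent frogs/days) were preloaded by injecting VF-6 in 25 nL ND96 at pH 5.0, 5.5, 6.0 or 7.0, or Na^+-free choline buffer, then uptake run 1.5 h, 27.5 °C, ND96 pH 5.5 by default. Internal concentrations assumed ~400 nL oocyte volume.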

PfCRT^3D7 = PfCRT^3D7 (Plasmodium falciparum, UniProt Q8IBZ9); experiment: cell-based; assay type: cell-based
In short: (§1)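 Transport measured in Xenopus oocytes expressing the transporters, 1.5 h at 27.5 °C in ND96 pH 5.5 unless noted. For trans-stimulation, VF-6 injected in 25 nL ND96 at pH 5.0–7.0 or Na^+-free (choline) buffer; intracellular levels based on ~400 nL oocyte volume. Ten oocytes per treatment, ≥4 experiments.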

PfCRT^Dd2 = PfCRT^Dd2 (Plasmodium falciparum, UniProt Q9N623, A220S/I356T/K76T/M74I/N326S/N75E/Q271E/R371I); experiment: cell-based; assay type: cell-based
In short: as §1

PfCRT^Ecu1110 = PfCRT^Ecu1110 (Plasmodium falciparum, UniProt Q9N623, A220S/I356L/K76T/N326D); experiment: cell-based; assay type: cell-based
In short: as §1

PfNT1 = biological target: T1, PfNT1 (Plasmodium falciparum, UniProt Q8IDM6); experiment: cell-based; assay type: cell-based
T1 construct: expressed in transfected cells; host or cells: Xenopus laevis oocytes (stage V-VI), cRNA-injected
In short: as §1

PfCRT^3D7, sequence (Q8IBZ9 59-398): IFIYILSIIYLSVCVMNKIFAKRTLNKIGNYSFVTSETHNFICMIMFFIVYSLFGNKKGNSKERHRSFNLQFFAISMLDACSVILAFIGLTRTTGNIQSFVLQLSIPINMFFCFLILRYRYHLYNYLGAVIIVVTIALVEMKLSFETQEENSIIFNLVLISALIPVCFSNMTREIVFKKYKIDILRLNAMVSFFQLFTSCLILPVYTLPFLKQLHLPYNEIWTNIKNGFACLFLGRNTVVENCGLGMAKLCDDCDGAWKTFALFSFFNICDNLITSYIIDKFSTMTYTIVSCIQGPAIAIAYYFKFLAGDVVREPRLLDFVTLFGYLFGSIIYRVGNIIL
T1 sequence (Q8IDM6 whole entry): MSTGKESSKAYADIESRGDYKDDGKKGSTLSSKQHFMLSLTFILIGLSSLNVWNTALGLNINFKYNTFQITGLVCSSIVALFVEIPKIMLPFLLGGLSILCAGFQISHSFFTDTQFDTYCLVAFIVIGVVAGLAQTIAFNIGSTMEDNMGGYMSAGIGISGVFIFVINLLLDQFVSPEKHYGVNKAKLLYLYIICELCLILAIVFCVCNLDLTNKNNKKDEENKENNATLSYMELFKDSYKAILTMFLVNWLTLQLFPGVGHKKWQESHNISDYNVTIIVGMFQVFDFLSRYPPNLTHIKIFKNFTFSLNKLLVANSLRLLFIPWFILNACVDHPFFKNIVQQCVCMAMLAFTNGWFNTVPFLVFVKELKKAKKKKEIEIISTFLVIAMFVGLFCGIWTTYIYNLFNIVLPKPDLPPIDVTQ
PfCRT^Ecu1110, sequence (Q9N623 whole entry A220S/I356L/K76T/N326D): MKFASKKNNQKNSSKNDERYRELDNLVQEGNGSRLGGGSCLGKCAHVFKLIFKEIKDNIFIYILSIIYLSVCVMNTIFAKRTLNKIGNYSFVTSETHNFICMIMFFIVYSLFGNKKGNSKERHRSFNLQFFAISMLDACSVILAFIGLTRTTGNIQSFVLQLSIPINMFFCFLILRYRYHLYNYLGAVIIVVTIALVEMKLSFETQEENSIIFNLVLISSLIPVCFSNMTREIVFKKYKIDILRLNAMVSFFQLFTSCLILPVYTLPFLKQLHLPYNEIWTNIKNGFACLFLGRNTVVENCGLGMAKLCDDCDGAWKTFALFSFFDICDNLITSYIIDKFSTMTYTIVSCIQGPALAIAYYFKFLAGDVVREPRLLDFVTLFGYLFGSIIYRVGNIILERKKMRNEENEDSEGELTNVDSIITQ
PfCRT^Dd2, sequence (Q9N623 whole entry A220S/I356T/K76T/M74I/N326S/N75E/Q271E/R371I): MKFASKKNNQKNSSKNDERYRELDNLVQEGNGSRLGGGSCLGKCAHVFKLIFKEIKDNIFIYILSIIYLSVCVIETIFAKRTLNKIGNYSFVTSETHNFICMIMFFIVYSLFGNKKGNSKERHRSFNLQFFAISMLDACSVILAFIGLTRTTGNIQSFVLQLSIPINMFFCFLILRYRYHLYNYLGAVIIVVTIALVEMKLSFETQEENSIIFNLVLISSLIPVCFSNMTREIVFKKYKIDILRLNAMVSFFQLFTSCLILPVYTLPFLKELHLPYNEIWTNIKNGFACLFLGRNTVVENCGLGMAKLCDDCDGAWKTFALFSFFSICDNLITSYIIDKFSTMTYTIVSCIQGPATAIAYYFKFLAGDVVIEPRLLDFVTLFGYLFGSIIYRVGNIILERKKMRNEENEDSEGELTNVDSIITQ

PVNF [VF-6-derived peptide]
[3H]CQ transport, non-expressing oocytes (non-expressing oocytes; Experiment 1): 2.32 % PfCRTDd2 control | [3H]CQ transport, non-expressing oocytes (non-expressing oocytes; Experiment 2): 2.21 % PfCRTDd2 control | [3H]CQ transport, non-expressing oocytes (non-expressing oocytes; Experiment 3): 2.25 % PfCRTDd2 control | [3H]CQ transport, non-expressing oocytes (non-expressing oocytes; Experiment 4): 2.16 % PfCRTDd2 control | [3H]CQ transport, PfCRT3D7 (PfCRT^3D7; Experiment 1): 16.17 % PfCRTDd2 control | [3H]CQ transport, PfCRT3D7 (PfCRT^3D7; Experiment 2): 15.91 % PfCRTDd2 control | [3H]CQ transport, PfCRT3D7 (PfCRT^3D7; Experiment 3): 16.12 % PfCRTDd2 control | [3H]CQ transport, PfCRT3D7 (PfCRT^3D7; Experiment 4): 16.15 % PfCRTDd2 control | [3H]CQ transport, PfCRTDd2 (PfCRT^Dd2; Experiment 1): 115.75 % PfCRTDd2 control | [3H]CQ transport, PfCRTDd2 (PfCRT^Dd2; Experiment 2): 122.53 % PfCRTDd2 control | [3H]CQ transport, PfCRTDd2 (PfCRT^Dd2; Experiment 3): 112.64 % PfCRTDd2 control | [3H]CQ transport, PfCRTDd2 (PfCRT^Dd2; Experiment 4): 109.74 % PfCRTDd2 control | [3H]CQ transport, PfCRTEcu1110 (PfCRT^Ecu1110; Experiment 1): 47.86 % PfCRTDd2 control | [3H]CQ transport, PfCRTEcu1110 (PfCRT^Ecu1110; Experiment 2): 40.15 % PfCRTDd2 control | [3H]CQ transport, PfCRTEcu1110 (PfCRT^Ecu1110; Experiment 3): 37.75 % PfCRTDd2 control | [3H]CQ transport, PfCRTEcu1110 (PfCRT^Ecu1110; Experiment 4): 41.78 % PfCRTDd2 control | [3H]CQ transport, PfNT1 (PfNT1; Experiment 1): 3.55 % PfCRTDd2 control | [3H]CQ transport, PfNT1 (PfNT1; Experiment 2): 3.73 % PfCRTDd2 control | [3H]CQ transport, PfNT1 (PfNT1; Experiment 3): 3.85 % PfCRTDd2 control | [3H]CQ transport, PfNT1 (PfNT1; Experiment 4): 3.52 % PfCRTDd2 control
